Experimental findings from US20260250290A1 (BRISTOL-MYERS SQUIBB COMPANY, priority 2023, published 2026) are described below.

In this test the target is T1, full length SGK1 (Homo sapiens, UniProt O00141).
T1 construct: 125 μM full length SGK1 (Life Technologies Part #PR7358A); purchased Life Technologies PR7358A
T1 sequence (O00141 1-431): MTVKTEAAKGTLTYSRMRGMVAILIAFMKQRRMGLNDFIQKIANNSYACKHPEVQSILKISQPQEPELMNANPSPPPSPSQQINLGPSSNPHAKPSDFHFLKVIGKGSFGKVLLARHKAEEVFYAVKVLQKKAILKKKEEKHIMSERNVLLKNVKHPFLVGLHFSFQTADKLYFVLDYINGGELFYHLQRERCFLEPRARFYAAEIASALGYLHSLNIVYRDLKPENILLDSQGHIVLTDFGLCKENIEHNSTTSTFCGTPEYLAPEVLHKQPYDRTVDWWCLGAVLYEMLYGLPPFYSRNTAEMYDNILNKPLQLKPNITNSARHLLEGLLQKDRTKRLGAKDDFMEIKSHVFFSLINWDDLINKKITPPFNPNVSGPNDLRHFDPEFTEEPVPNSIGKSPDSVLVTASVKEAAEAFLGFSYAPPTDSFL
Description: SGK1 inhibition Assay A (Caliper LabChip electrophoretic separation of fluorescent peptide substrate and phosphorylated product). In kind it is biochemical. The conditions noted are these: Assay A; 20 μM ATP, 40 min incubation; read-out: SGK1 IC50.

Consider `CN(C)CCOc1cc(Cl)sc1C(=O)N[C@@H]1CCCN(c2cc(-c3ccnc(C(F)F)c3)n3ncnc(N)c23)C1` [Example 340, (R)—N-(1-(4-amino-7-(2-(difluoromethyl)pyridin-4-yl)pyrrolo[2,1-f][1,2,4]triazin-5-yl)piperidin-3-yl)-5-chloro-3-(2-(dimethylamino)ethoxy)thiophene-2-carboxamide], for which the IC50 stood at 3 nM.

As to `Nc1ncnn2c(-c3ccnc(C(F)F)c3)cc(N3CCC[C@@H](NC(=O)c4sc(Cl)cc4OCCN4CCOCC4)C3)c12` [Example 341, (R)—N-(1-(4-amino-7-(2-(difluoromethyl)pyridin-4-yl)pyrrolo[2,1-f][1,2,4]triazin-5-yl)piperidin-3-yl)-5-chloro-3-(2-morpholinoethoxy)thiophene-2-carboxamide], the IC50 came out at 2 nM. Consider `CN1CCN(CCOc2cc(Cl)sc2C(=O)N[C@@H]2CCCN(c3cc(-c4ccnc(C(F)F)c4)n4ncnc(N)c34)C2)CC1` [Example 342, (R)—N-(1-(4-amino-7-(2-(difluoromethyl)pyridin-4-yl)pyrrolo[2,1-f][1,2,4]triazin-5-yl)piperidin-3-yl)-5-chloro-3-(2-(4-methylpiperazin-1-yl)ethoxy)thiophene-2-carboxamide], for which the IC50 amounted to 4 nM. Take `CN(C)CCOc1cc(C(F)F)sc1C(=O)N[C@@H]1CCCN(c2cc(-c3ccnc(C(F)F)c3)n3ncnc(N)c23)C1` [Example 343, (R)—N-(1-(4-amino-7-(2-(difluoromethyl)pyridin-4-yl)pyrrolo[2,1-f][1,2,4]triazin-5-yl)piperidin-3-yl)-5-(difluoromethyl)-3-(2-(dimethylamino)ethoxy)thiophene-2-carboxamide]: the IC50 was determined as 5 nM. To `Nc1ncnn2c(-c3ccnc(C(F)F)c3)cc(N3CCC[C@@H](NC(=O)c4sc(C(F)F)cc4N4CCOCC4)C3)c12` [Example 344, (R)—N-(1-(4-amino-7-(2-(difluoromethyl)pyridin-4-yl)pyrrolo[2,1-f][1,2,4]triazin-5-yl)piperidin-3-yl)-5-(difluoromethyl)-3-morpholinothiophene-2-carboxamide] belongs 7 nM; to `Nc1ncnn2c(-c3ccnc(C(F)F)c3)cc(N3CCC[C@@H](NC(=O)c4sc(C(F)F)cc4N4CC5(COC5)C4)C3)c12` [Example 345, (R)—N-(1-(4-amino-7-(2-(difluoromethyl)pyridin-4-yl)pyrrolo[2,1-f][1,2,4]triazin-5-yl)piperidin-3-yl)-5-(difluoromethyl)-3-(2-oxa-6-azaspiro[3.3]heptan-6-yl)thiophene-2-carboxamide], 19 nM; to `Nc1ncnn2c(-c3ccc(NS(=O)(=O)c4cc(Cl)ccc4F)cc3)cc(N3CCC[C@@H](NC(=O)c4ccc(Cl)s4)C3)c12` [Example 346, (R)—N-(1-(4-amino-7-(4-((5-chloro-2-fluorophenyl)sulfonamido)phenyl)pyrrolo[2,1-f][1,2,4]triazin-5-yl)piperidin-3-yl)-5-chlorothiophene-2-carboxamide], 79 nM. For `CC(=O)N1CC=C(c2cc(N3CCC[C@@H](NC(=O)c4sc(C(F)F)cc4OC4CCNCC4)C3)c3c(N)ncnn23)C1` [Example 347, (R)—N-(1-(7-(1-acetyl-2,5-dihydro-1H-pyrrol-3-yl)-4-aminopyrrolo[2,1-f][1,2,4]triazin-5-yl)piperidin-3-yl)-5-(difluoromethyl)-3-(piperidin-4-yloxy)thiophene-2-carboxamide], the IC50 was determined as 9 nM. `COC(=O)N1CC=C(c2cc(N3CCC[C@@H](NC(=O)c4sc(C(F)F)cc4OC4CCNCC4)C3)c3c(N)ncnn23)C1` [Example 348, methyl (R)-3-(4-amino-5-(3-(5-(difluoromethyl)-3-(piperidin-4-yloxy)thiophene-2-carboxamido)piperidin-1-yl)pyrrolo[2,1-f][1,2,4]triazin-7-yl)-2,5-dihydro-1H-pyrrole-1-carboxylate]: the IC50 worked out at 6 nM. Take `NC(=O)c1ccc(-c2cc(N3CCC[C@@H](NC(=O)c4sc(C(F)F)cc4OC4CCNCC4)C3)c3c(N)ncnn23)cc1F` [Example 349, (R)-N-(1-(4-amino-7-(4-carbamoyl-3-fluorophenyl)pyrrolo[2,1-f][1,2,4]triazin-5-yl)piperidin-3-yl)-5-(difluoromethyl)-3-(piperidin-4-yloxy)thiophene-2-carboxamide]: the IC50 came out at 2 nM. For `CC(=O)N1CC=C(c2cc(N3CCC[C@@H](NC(=O)c4sc(C(F)F)cc4OCC4CCNCC4)C3)c3c(N)ncnn23)C1` [Example 350, (R)—N-(1-(7-(1-acetyl-2,5-dihydro-1H-pyrrol-3-yl)-4-aminopyrrolo[2,1-f][1,2,4]triazin-5-yl)piperidin-3-yl)-5-(difluoromethyl)-3-(piperidin-4-ylmethoxy)thiophene-2-carboxamide], the IC50 stood at 13 nM.

Consider `COC(=O)N1CC=C(c2cc(N3CCC[C@@H](NC(=O)c4sc(C(F)F)cc4OCC4CCNCC4)C3)c3c(N)ncnn23)C1` [Example 351, methyl (R)-3-(4-amino-5-(3-(5-(difluoromethyl)-3-(piperidin-4-yl-methoxy)thiophene-2-carboxamido)piperidin-1-yl)pyrrolo[2,1-f][1,2,4]triazin-7-yl)-2,5-dihydro-1H-pyrrole-1-carboxylate], for which the IC50 was 8 nM.

Consider `CC(=O)N1CC=C(c2cc(N3CCC[C@@H](NC(=O)c4sc(C)nc4OCCN(C)C)C3)c3c(N)ncnn23)C1` [Example 352, (R)—N-(1-(7-(1-acetyl-2,5-dihydro-1H-pyrrol-3-yl)-4-aminopyrrolo[2,1-f][1,2,4]triazin-5-yl)piperidin-3-yl)-4-(2-(dimethylamino)ethoxy)-2-methylthiazole-5-carboxamide], for which the IC50 stood at 14 nM. To `COC(=O)N1CC=C(c2cc(N3CCC[C@@H](NC(=O)c4sc(C)nc4OCCN(C)C)C3)c3c(N)ncnn23)C1` [Example 353, Methyl (R)-3-(4-amino-5-(3-(4-(2-(dimethylamino)ethoxy)-2-methylthiazole-5-carboxamido)piperidin-1-yl)pyrrolo[2,1-f][1,2,4]triazin-7-yl)-2,5-dihydro-1H-pyrrole-1-carboxylate] belongs 16 nM.

`Cc1nc(OCCN(C)C)c(C(=O)N[C@@H]2CCCN(c3cc(-c4ccc(C#N)nc4)n4ncnc(N)c34)C2)s1` [Example 354, (R)-N-(1-(4-amino-7-(6-cyanopyridin-3-yl)pyrrolo[2,1-f][1,2,4]triazin-5-yl)piperidin-3-yl)-4-(2-(dimethylamino)ethoxy)-2-methylthiazole-5-carboxamide]: the IC50 was found to be 6 nM. To `Cc1nc(OCCN(C)C)c(C(=O)N[C@@H]2CCCN(c3cc(-c4ccc(=O)n(CC(C)C)c4)n4ncnc(N)c34)C2)s1` [Example 355, (R)-N-(1-(4-amino-7-(1-isobutyl-6-oxo-1,6-dihydropyridin-3-yl)pyrrolo[2,1-f][1,2,4]triazin-5-yl)piperidin-3-yl)-4-(2-(dimethylamino)ethoxy)-2-methylthiazole-5-carboxamide] belongs 47 nM; to `Cc1nc(OCCN(C)C)c(C(=O)N[C@@H]2CCCN(c3cc(-c4ccnc(C#N)c4)n4ncnc(N)c34)C2)s1` [Example 356, (R)-N-(1-(4-amino-7-(2-cyanopyridin-4-yl)pyrrolo[2,1-f][1,2,4]triazin-5-yl)piperidin-3-yl)-4-(2-(dimethylamino)ethoxy)-2-methylthiazole-5-carboxamide], 13 nM; to `CC(=O)N1CC=C(c2cc(N3CCC[C@@H](NC(=O)c4sc(C)nc4OC4CCN(C)CC4)C3)c3c(N)ncnn23)C1` [Example 357, (R)—N-(1-(7-(1-acetyl-2,5-dihydro-1H-pyrrol-3-yl)-4-aminopyrrolo[2,1-f][1,2,4]triazin-5-yl)piperidin-3-yl)-2-methyl-4-((1-methylpiperidin-4-yl)oxy)thiazole-5-carboxamide], 24 nM. As for `CC(=O)N1CC=C(c2cc(N3CCC[C@@H](NC(=O)c4sc(C)nc4OC4CCNCC4)C3)c3c(N)ncnn23)C1` [Example 357E, (R)—N-(1-(7-(1-acetyl-2,5-dihydro-1H-pyrrol-3-yl)-4-aminopyrrolo[2,1-f][1,2,4]triazin-5-yl)piperidin-3-yl)-2-methyl-4-(piperidin-4-yloxy)thiazole-5-carboxamide], the IC50 amounted to 19 nM.

Turning to `CC(=O)N1CC=C(c2cc(N3CCC[C@@H](NC(=O)c4sc(C)nc4OC4CCN(C(C)C)CC4)C3)c3c(N)ncnn23)C1` [Example 358, (R)-N-(1-(7-(1-acetyl-2,5-dihydro-1H-pyrrol-3-yl)-4-aminopyrrolo[2,1-f][1,2,4]triazin-5-yl)piperidin-3-yl)-4-((1-isopropylpiperidin-4-yl)oxy)-2-methylthiazole-5-carboxamide], the IC50 was determined as 29 nM.

Consider `Cc1nc(OC2CCN(C)CC2)c(C(=O)N[C@@H]2CCCN(c3cc(-c4ccc(C#N)nc4)n4ncnc(N)c34)C2)s1` [Example 362, (R)-N-(1-(4-amino-7-(6-cyanopyridin-3-yl)pyrrolo[2,1-f][1,2,4]triazin-5-yl)piperidin-3-yl)-2-methyl-4-((1-methylpiperidin-4-yl)oxy)thiazole-5-carboxamide], for which the IC50 was 19 nM. Under `Cc1nc(OC2CCN(C(C)C)CC2)c(C(=O)N[C@@H]2CCCN(c3cc(-c4ccc(C#N)nc4)n4ncnc(N)c34)C2)s1` [Example 363, (R)-N-(1-(4-amino-7-(6-cyanopyridin-3-yl)pyrrolo[2,1-f][1,2,4]triazin-5-yl)piperidin-3-yl)-4-((1-isopropylpiperidin-4-yl)oxy)-2-methylthiazole-5-carboxamide] stands 7 nM.

The term IC50 denotes the point on the concentration scale where inhibition reaches its midpoint.
